Assay results from patent US10570131B2, “Heterocyclic compounds and their use in preventing or treating bacterial infections” (MUTABILIS, priority 2015, dated 2020).

Assays:
[1] = tested on: E. cloacae P99; test: MIC of compounds alone, broth microdilution; assay type: cell-based; conditions: Enterobacter cloacae; strain P99 (AmpC); read-out: MIC compounds of the invention alone
Description: (§1) Compounds of the present invention were assessed against genotyped bacterial strains alone or in combination with the β-lactam ceftazidime (CAZ). […] Briefly, compounds alone according to the invention were prepared in DMSO and spotted (2 μL each) on sterile polystyrene plates (Corning, 3788). […] Log phase bacterial suspensions were adjusted to a final density of 5×10^5 cfu/mL in cation-adjusted Mueller-Hinton broth (Becton-Dickinson) and added to each well (98 μL). Microplates were incubated for 16-20 h at 35° C. in ambient air. The MIC of the compounds was defined as the lowest concentration of said compounds that prevented bacterial growth as read by visual inspection.

[2] = tested on: E. coli 190317; test: MIC of compounds alone, broth microdilution; assay type: cell-based; conditions: Escherichia coli; strain 190317 (TEM-1, SHV-12, CTX-M-15, OXA-1); read-out: MIC compounds of the invention alone
Description: as §1

[3] = tested on: P. aeruginosa CIP107051; test: MIC of compounds alone, broth microdilution; assay type: cell-based; conditions: Pseudomonas aeruginosa; strain CIP107051 (TEM-24); read-out: MIC compounds of the invention alone
Description: as §1

[4] = tested on: E. coli RGN238; test: MIC of compounds alone, broth microdilution; assay type: cell-based; conditions: Escherichia coli, RGN238, read-out: MIC compounds of the invention alone
Description: as §1

[5] = tested on: E. coli 131119; test: microbe, parasite or virus in culture; assay type: cell-based; conditions: Escherichia coli, 131119, read-out: MIC compounds of the invention alone
Description: as §1

[6] = tested on: P. aeruginosa CIP105250; test: microbe, parasite or virus in culture; assay type: cell-based; conditions: Pseudomonas aeruginosa, CIP105250, read-out: MIC compounds of the invention alone
Description: as §1

[7] = tested on: K. pneumoniae 6299; test: microbe, parasite or virus in culture; assay type: cell-based; conditions: Klebsiella pneumoniae, 6299, read-out: MIC compounds of the invention alone
Description: as §1

[8] = tested on: K. pneumoniae BAA-1898; test: microbe, parasite or virus in culture; assay type: cell-based; conditions: Klebsiella pneumoniae, BAA1898, read-out: MIC compounds of the invention alone
Description: as §1

[9] = tested on: P. aeruginosa CIP105250; test: MIC of ceftazidime alone and in combination with compounds (synergy), broth microdilution; assay type: cell-based; conditions: MIC of ceftazidime with compound fixed at 4 μg/mL; strain CIP105250 (OXA-15)
Description: as §1

[10] = tested on: K. pneumoniae 6299; test: as above; assay type: cell-based; conditions: MIC of ceftazidime with compound fixed at 4 μg/mL; strain 6299 (TEM-1, SHV-11, OXA-163)
Description: as §1

[11] = tested on: K. pneumoniae BAA-1898; test: as above; assay type: cell-based; conditions: MIC of ceftazidime with compound fixed at 4 μg/mL; strain BAA-1898 (TEM-1, SHV-11, SHV-12, KPC-2)
Description: as §1

[12] = tested on: P. aeruginosa CIP107051; test: as above; assay type: cell-based; conditions: MIC of ceftazidime with compound fixed at 4 μg/mL; strain CIP107051 (TEM-24)
Description: as §1

[13] = target: T1, AmpC (P99) (Enterobacter cloacae, UniProt P05364); test: biochemical
T1 construct: made in house; host or cells: E. coli expression vector
T1 sequence (P05364 21-381): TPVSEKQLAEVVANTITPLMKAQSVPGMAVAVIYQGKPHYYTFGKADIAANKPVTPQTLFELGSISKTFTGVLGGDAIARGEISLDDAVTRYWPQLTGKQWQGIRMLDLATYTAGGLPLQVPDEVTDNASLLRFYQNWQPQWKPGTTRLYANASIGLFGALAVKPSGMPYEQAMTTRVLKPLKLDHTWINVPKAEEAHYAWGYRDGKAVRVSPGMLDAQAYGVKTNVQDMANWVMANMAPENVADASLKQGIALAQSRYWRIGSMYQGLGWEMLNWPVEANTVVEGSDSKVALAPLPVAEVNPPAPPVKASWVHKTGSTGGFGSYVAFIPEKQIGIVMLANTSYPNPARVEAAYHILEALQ
Description: (§2) Method 1: β-lactamase Inhibitory Activity, Determination of IC50 (Table 1)
(§3) Enzyme activity was monitored by spectrophotometric measurement of nitrocefin (NCF—TOKU-E, N005) hydrolysis at 485 nm, at room temperature and in assay buffer A: 100 mM Phosphate pH7, 2% glycerol and 0.1 mg/mL Bovine serum albumin (Sigma, B4287). Enzymes were cloned in E. coli expression vector, expressed and purified in house using classical procedures. To a transparent polystyrene plate (Corning, 3628) were added in each well 5 μL DMSO or inhibitor dilutions in DMSO and 80 μL enzyme in buffer A. Plates were immediately read at 485 nm in a microplate spectrophotometer (BioTek, PowerWave HT) to enable background subtraction. After 30 min of pre-incubation at room temperature, 15 μL of NCF (200 μM final) were finally added in each well. Final enzyme concentrations were 0.1 nM (TEM-1), 0.075 nM (SHV-1), 0.4 nM (CTX-M-15), 1 nM (KPC-2), 0.2 nM (P99 AmpC), 0.2 nM (CMY-37), 0.4 nM (AmpC P. aeruginosa), 0.2 nM (OXA-1), 1.2 nM (OXA-11), 0.4 nM (OXA-15) and 0.3 nM (OXA-48). After 20 min incubation at room temperature, plates were once again read at 485 nm. Enzyme activity was obtained by subtracting the final signal by the background, and was converted to enzyme inhibition using non inhibited wells. IC50 curves were fitted to a classical Langmuir equilibrium model with Hill slope using XLFIT (IDBS).

[14] = target: T2, OXA-15 (Pseudomonas aeruginosa, UniProt Q51574); test: biochemical
T2 construct: made in house; host or cells: E. coli expression vector
T2 sequence (Q51574 22-275): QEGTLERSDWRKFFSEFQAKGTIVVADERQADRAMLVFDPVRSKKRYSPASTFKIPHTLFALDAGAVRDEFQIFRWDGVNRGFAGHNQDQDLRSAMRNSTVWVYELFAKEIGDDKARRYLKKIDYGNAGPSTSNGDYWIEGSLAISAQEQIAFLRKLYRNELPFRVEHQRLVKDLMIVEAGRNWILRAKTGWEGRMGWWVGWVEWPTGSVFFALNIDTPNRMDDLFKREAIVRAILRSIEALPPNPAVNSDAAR
Description: as §2, §3

[15] = target: T3, SHV-1 (Klebsiella pneumoniae, UniProt P0AD64); test: β-lactamase inhibitory activity, IC50 (nitrocefin hydrolysis); assay type: biochemical
T3 construct: made in house; host or cells: E. coli expression vector
T3 sequence (P0AD64 22-286): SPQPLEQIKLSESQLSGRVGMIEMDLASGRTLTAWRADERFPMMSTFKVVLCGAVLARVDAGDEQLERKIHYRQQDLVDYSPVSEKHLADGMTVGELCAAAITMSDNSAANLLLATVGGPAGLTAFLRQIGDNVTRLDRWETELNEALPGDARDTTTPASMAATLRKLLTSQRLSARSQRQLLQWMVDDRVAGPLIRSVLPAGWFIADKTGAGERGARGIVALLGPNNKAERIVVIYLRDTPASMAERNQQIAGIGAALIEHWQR
Description: as §2, §3

[16] = target: T4, CTX-M-15 (Escherichia coli, UniProt Q9EXV5); test: as above; assay type: biochemical
T4 construct: made in house; host or cells: E. coli expression vector
T4 sequence (Q9EXV5 entry or part of it): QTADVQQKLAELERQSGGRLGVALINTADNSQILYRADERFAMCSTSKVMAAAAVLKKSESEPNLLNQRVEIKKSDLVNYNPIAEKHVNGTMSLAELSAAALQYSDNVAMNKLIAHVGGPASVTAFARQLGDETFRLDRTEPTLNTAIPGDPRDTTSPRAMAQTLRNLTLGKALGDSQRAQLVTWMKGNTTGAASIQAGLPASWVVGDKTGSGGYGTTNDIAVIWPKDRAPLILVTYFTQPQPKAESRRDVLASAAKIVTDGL
Description: as §2, §3

[17] = target: T5, TEM-1 (Escherichia coli, UniProt P62593); test: as above; assay type: biochemical; conditions: class (A); 30 min pre-incubation; NCF 200 μM
T5 construct: made in house; host or cells: E. coli expression vector
T5 sequence (P62593 24-286 limits assumed): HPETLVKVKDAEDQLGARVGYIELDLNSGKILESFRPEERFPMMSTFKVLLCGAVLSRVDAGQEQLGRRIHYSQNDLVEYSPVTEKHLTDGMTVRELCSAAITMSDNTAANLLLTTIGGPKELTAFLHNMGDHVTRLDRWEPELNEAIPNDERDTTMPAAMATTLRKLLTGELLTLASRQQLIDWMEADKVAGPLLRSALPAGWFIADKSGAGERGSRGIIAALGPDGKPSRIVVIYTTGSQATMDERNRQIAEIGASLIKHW
Description: as §2, §3

[18] = target: T6, OXA-11 (Pseudomonas aeruginosa, UniProt Q06778); test: as above; assay type: biochemical
T6 construct: made in house; host or cells: E. coli expression vector
T6 sequence (Q06778 21-266): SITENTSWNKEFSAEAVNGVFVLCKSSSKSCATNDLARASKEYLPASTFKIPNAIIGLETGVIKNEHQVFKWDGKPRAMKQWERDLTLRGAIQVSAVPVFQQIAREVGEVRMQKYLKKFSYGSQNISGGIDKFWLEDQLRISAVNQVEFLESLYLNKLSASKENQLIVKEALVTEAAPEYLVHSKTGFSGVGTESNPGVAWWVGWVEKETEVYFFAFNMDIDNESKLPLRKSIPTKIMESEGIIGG
Description: as §2, §3

[19] = target: T7, OXA-48 (Klebsiella pneumoniae, UniProt Q6XEC0); test: as above; assay type: biochemical
T7 construct: made in house; host or cells: E. coli expression vector
T7 sequence (Q6XEC0 23-265 limits assumed): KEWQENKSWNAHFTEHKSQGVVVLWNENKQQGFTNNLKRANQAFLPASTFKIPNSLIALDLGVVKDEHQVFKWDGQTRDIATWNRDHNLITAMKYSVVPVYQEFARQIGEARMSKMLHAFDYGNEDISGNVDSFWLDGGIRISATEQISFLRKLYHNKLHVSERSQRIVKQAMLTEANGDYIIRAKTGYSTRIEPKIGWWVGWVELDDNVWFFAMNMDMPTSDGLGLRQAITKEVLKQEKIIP
Description: as §2, §3

[20] = target: T8, OXA-1 (Escherichia coli, UniProt P13661); test: as above; assay type: biochemical
T8 construct: made in house; host or cells: E. coli expression vector
T8 sequence (P13661 26-276): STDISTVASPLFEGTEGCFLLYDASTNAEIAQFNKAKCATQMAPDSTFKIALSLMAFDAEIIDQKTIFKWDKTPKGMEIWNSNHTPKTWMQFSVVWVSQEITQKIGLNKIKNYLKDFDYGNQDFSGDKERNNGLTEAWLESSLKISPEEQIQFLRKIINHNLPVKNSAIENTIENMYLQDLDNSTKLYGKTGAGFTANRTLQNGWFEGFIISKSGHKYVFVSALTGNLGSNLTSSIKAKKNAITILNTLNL
Description: as §2, §3

[21] = target: T9, KPC-2 (Klebsiella pneumoniae, UniProt Q9F663); test: as above; assay type: biochemical
T9 construct: made in house; host or cells: E. coli expression vector
T9 sequence (Q9F663 25-293 limits assumed): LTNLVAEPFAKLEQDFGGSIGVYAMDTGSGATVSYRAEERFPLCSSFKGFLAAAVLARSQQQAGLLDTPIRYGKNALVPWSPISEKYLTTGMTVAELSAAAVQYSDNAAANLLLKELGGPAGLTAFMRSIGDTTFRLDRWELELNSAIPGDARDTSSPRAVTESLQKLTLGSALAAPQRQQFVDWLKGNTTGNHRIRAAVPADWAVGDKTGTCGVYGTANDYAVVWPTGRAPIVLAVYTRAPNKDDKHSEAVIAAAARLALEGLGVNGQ
Description: as §2, §3

[22] = tested on: E. coli 190317; test: MIC of ceftazidime alone and in combination with compounds (synergy), broth microdilution; assay type: cell-based; conditions: MIC of ceftazidime with compound fixed at 4 μg/mL; strain 190317 (TEM-1, SHV-12, CTX-M-15, OXA-1)
[23] = tested on: E. cloacae P99; test: as above; assay type: cell-based; conditions: MIC of ceftazidime with compound fixed at 4 μg/mL; strain P99 (AmpC)
[24] = target: T10, AmpC (PAE) (Pseudomonas aeruginosa, UniProt P24735); test: biochemical; set-up: species or system P. aeruginosa
T10 construct: made in house; host or cells: E. coli expression vector
T10 sequence (P24735 27-397): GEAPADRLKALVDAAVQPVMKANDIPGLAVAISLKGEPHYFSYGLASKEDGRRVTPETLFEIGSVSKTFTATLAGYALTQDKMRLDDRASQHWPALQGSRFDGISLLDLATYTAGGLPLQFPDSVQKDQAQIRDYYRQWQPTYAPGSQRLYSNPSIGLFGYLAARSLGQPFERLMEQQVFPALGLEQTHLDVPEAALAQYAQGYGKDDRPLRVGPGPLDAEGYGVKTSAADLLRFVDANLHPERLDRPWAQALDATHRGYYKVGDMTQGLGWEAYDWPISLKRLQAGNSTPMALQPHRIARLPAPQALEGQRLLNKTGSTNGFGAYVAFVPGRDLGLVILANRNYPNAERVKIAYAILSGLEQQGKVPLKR
Description: as §2, §3

Row | SMILES | MIC [1] | MIC [2] | MIC [3] | MIC [4] | MIC [5] | MIC [6] | MIC [7] | MIC [8] | MIC, combination of CAZ and compounds of the invention at 4 μg/mL [9] | MIC, combination of CAZ and compounds of the invention at 4 μg/mL [10] | MIC, combination of CAZ and compounds of the invention at 4 μg/mL [11] | MIC, combination of CAZ and compounds of the invention at 4 μg/mL [12] | IC50 [13] | IC50 [14] | IC50 [15] | IC50 [16] | IC50 [17] | IC50 [18] | IC50 [19] | IC50 [20] | further results
1 | NC(=O)CON=C1C[C@@H](C(N)=O)N2C[C@@H]1N(OS(=O)(=O)[O-])C2=O.[Na+] (mixture of isomers) [Example 3, sodium [(2S, 5S)-4-(2-amino-2-oxo-ethoxy)imino-2-carbamoyl-7-oxo-1,6-diazabicyclo[3.2.1]octan-6-yl] sulfate] | > 32 µg/mL | > 32 µg/mL | > 32 µg/mL | > 32 µg/mL | > 32 µg/mL | > 32 µg/mL | > 32 µg/mL | > 32 µg/mL | 32 µg/mL | 4 µg/mL | 64 µg/mL | 32 µg/mL | 7.4 nM | 1.6 nM | 4.6 nM | 2 nM | 3 nM | 48 nM | 5.7 nM | 17 nM | IC50 [21]: 33 nM; MIC, combination of CAZ and compounds of the invention at 4 μg/mL [22]: ≤0.125 µg/mL; MIC, combination of CAZ and compounds of the invention at 4 μg/mL [23]: 32 µg/mL; IC50 [24]: 220 nM
2 | CNC(=O)CON=C1C[C@@H](C(=O)OC)N2C[C@@H]1N(OS(=O)(=O)[O-])C2=O.[Na+] (mixture of isomers) [Example 1, sodium [(2S,5S)-2-methoxycarbonyl-4-[2-(methylamino)-2-oxo-ethoxy]imino-7-oxo-1,6-diazabicyclo[3.2.1]octan-6-yl] sulfate] | > 32 µg/mL | > 32 µg/mL | > 32 µg/mL | > 32 µg/mL | > 32 µg/mL | > 32 µg/mL | > 32 µg/mL | > 32 µg/mL | 64 µg/mL | 32 µg/mL | 128 µg/mL | 64 µg/mL | 4.1 nM | 0.65 nM | 1.3 nM | 5.4 nM | 3.2 nM | 4.1 nM | 0.51 nM | 80 nM | IC50 [21]: 7.8 nM; MIC, combination of CAZ and compounds of the invention at 4 μg/mL [22]: 4 µg/mL; MIC, combination of CAZ and compounds of the invention at 4 μg/mL [23]: 64 µg/mL; IC50 [24]: 37 nM
